Laboratory results from US9617304B2, “Pharmaceutical composition containing an endocytic motif and protein transduction domains for preventing or treating cancer” (Korea Research Institute Of Bioscience And Biotechnology, priority 2011, dated 2017).

Legend:
Tac/3S chimeric protein = assay: Endocytosis of Tac/3S chimeric protein in COS-7 cells after pretreatment with inhibitors; format: cell-based; details: for endocytosis of Tac/3S chimeric protein: COS-7, 100 μg/ml ConA, 80 μM Dynasore, 1 μM Go6976, 1 μM K252a, 1 μM Vinblastine, 30 minutes pretreatment
Method: Each of plasmid DNAs encoding Tac chimeric proteins illustrated in FIG. 2 was expressed in COS-7 cell line to induce endocytosis. To quantify endocytosis percentage, the following method was used. First, plasmid DNA was transfected into COS-7 cell line, and next day, cells were suspended in DMED supplemented with 10% FBS, and seeded onto an 8-well slide glass (Thermo, 154534) to 50% confluency. Next day, to block endocytosis, cells were transferred at 4° C. and left for 30 minutes. Anti-Tac (BD BIOSCIENCES, 347640) antibody was diluted in DMEM supplemented with 10% FBS at a ratio of 1:10, and treated at 4° C. for 30 minutes. The cells were washed with medium three times. To induce endocytosis again, the cells were transferred at 5% CO2 and 37° C., and left for different time periods. The cells were fixed in 4% paraformaldehyde for 45 minutes at room temperature. To detect cell surface anti-Tac antibody, anti-mouse IgG-ALEXA FLUOR 488 (INVITROGEN, A-11001) was diluted with PBS containing 3% normal goat serum (Vector, S-1000) at a ratio of 1:500, and treated at room temperature for 1 hour. Then, the cells were washed with PBST for 5 minutes three times. For permeablization and blocking, the cells were treated with PBST containing 3% normal goat serum at room temperature for 1 hour. Next, to detect intracellular Tac, anti-mouse IgG-ALEXA FLUOR 568 (INVITROGEN, A11061) was diluted with PBST containing 3% normal goat serum at a ratio of 1:500, and treated at room temperature for 1 hour. The cells were washed with PBST three times, and mounted in Mounting Medium with DAPI (Vector, H-1200). Next day, the sample was examined by fluorescence microscopy (Olympus IX2-UCB). For treatment of inhibitors, 100 μg/ml ConA (SIGMA, C0412), 80 μM Dynasore (SIGMA, D7693), 1 μM Go6976 (CALBIOCHEM, 365250), 1 μM K252a (INVITROGEN, PHZ1131) and 1 μM Vinblastine (SIGMA, V1377) were pretreated at 5% CO2 and 37° C. for 30 minutes, before endocytosis assay.

COS-7 cells = assay: Endocytosis of Tac chimeric proteins expressed in COS-7 cells, fluorescence microscopy; format: cell-based
Method: To quantify endocytosis percentage, the following method was used. First, plasmid DNA was transfected into COS-7 cell line, and next day, cells were suspended in DMED supplemented with 10% FBS, and seeded onto an 8-well slide glass (Thermo, 154534) to 50% confluency. Next day, to block endocytosis, cells were transferred at 4° C. and left for 30 minutes. Anti-Tac (BD BIOSCIENCES, 347640) antibody was diluted in DMEM supplemented with 10% FBS at a ratio of 1:10, and treated at 4° C. for 30 minutes. The cells were washed with medium three times. To induce endocytosis again, the cells were transferred at 5% CO2 and 37° C., and left for different time periods. The cells were fixed in 4% paraformaldehyde for 45 minutes at room temperature. […] Next day, the sample was examined by fluorescence microscopy (Olympus IX2-UCB). […] To quantify endocytosis of Tac chimeric proteins expressed in COS-7 cells over time, the following Equation was used. […] As such, green fluorescence intensity indicates the amount of cell surface Tac, and red fluorescence intensity signifies those of endocytosed Tac plus partial cell surface Tac. […] Partially detected surface Tac by anti-mouse IgG-ALEXA FLUOR 568 was measured by comparing fluorescence intensity between green and red at 0 min in which no endocytosis occurred. Red fluorescence intensity was 0.429-fold or green fluorescence intensity at 0 min, which was defined as α. […]

Molecule: O=C(N/N=C/c1ccc(O)c(O)c1)c1cc2ccccc2cc1O [Dynasore]
- endocytosis of Tac/3S chimeric protein (Tac/3S chimeric protein): inhibited

Molecule: Cn1c2ccccc2c2c3c(c4c5ccccc5n(CCC#N)c4c21)CNC3=O [Go6976]
- endocytosis of Tac/3S chimeric protein (Tac/3S chimeric protein): inhibited

Molecule: COC(=O)[C@@]1(O)C[C@H]2O[C@]1(C)n1c3ccccc3c3c4c(c5c6ccccc6n2c5c31)C(=O)NC4 [K252a]
- endocytosis of Tac/3S chimeric protein (Tac/3S chimeric protein): not inhibited

Molecule: CC[C@]1(O)C[C@@H]2CN(CCc3c([nH]c4ccccc34)[C@@](C(=O)OC)(c3cc4c(cc3OC)N(C)[C@H]3[C@@](O)(C(=O)OC)[C@H](OC(C)=O)[C@]5(CC)C=CCN6CC[C@]43[C@@H]65)C2)C1 [Vinblastine]
- transportation of Tac/3S protein to the perinuclear region (Tac/3S chimeric protein; COS-7, 1 μM Vinblastine): blocked
- endocytosis of Tac/3S chimeric protein (Tac/3S chimeric protein): not inhibited

Molecule: Concannavalin A [ConA]
- endocytosis of Tac/3S chimeric protein (Tac/3S chimeric protein): inhibited

B1: Tac/3S: fusion protein of Tac and 3S polypeptide (protein)
chain: ELCDDDPPEIPHATFKAMAYKEGTMLNCECKRGFRRIKSGSLYMLCTGNSSHSSWDNQCQCTSSATRNTTKQVTPQPEEQKERKTTEMQSPMQPVDQASLPGHCREPPPWENEATERIYHFVVGQMVYYQCVQGYRALHRGPAESVCKMTHGKTRWTQPQLICTGEMETSQFPGEEKPQASPEGRPESETSCLVTTTDFQIQTEMAATMETSIFTTEYQKCVAPYPSLLSSEDNA
- subcellular localization (colocalization test) (COS-7 cells): partially merged with ER tracker
